The values that follow are results of earlier work, collected in US20230320989A1, “SUSTAINED-RELEASE PHARMACEUTICAL FORMULATION OF FUSED TRICYCLIC ?-AMINO ACID DERIVATIVE AND PREPARATION METHOD THEREFOR” (SICHUAN HAISCO PHARMACEUTICAL CO., LTD., priority 2020, published 2023).

For the series the following is noted: patients with diabetic peripheral neuropathy.

Turning to `NCC1(CC(=O)O)CCCCC1` [gabapentin], the “proportion of patients whose pain is relieved to a great extent” value is on record as “about 60%”.
